Source: patent publication US6608004B2, “Substituted 2-aryl-1,2,4-triazine-3,5-di(thi)ones” (priority 1999, dated 2003)
Read-outs that look alike come from different tables or passages of the source.

How the values were obtained:
[1] = logP determination by HPLC, reversed-phase column (C 18), EEC Directive 79/831 Annex V.A8; details: for chromatographic logP: pH 2
Source text: (a) Mobile phases for the determination in the acidic range: 0.1% aqueous phosphoric acid, acetonitrile; linear gradient from 10% acetonitrile to 90% acetonitrile—the corresponding measurement results are labelled in Table 1 with ^a).
(b) Mobile phases for the determination in the neutral range: 0.01 molar aqueous phosphate buffer solution, acetonitrile; linear gradient from 10% acetonitrile to 90% acetonitrile—the corresponding measurement results are labelled in Table 1 with ^b).

weeds [2] = assay: Pre-Emergence Test (Example A), activity against weeds; format: in vivo; details: soil sprayed about 24 hours after sowing, rated after three weeks
Source text: (§1) Solvent: 5 parts by weight of acetone
(§2) Emulsifier: 1 part by weight of alkylaryl polyglycol ether
(§3) Seeds of the test plants are sown in normal soil.
0%=no effect (like untreated control)

[3] = system: crop plants, such as, for example, barley, wheat, rapeseed, soya and sugar beet; assay: Pre-Emergence Test (Example A), tolerance by crop plants; format: in vivo
Source text: as §1, §2, §3

weeds [4] = assay: Post-Emergence Test (Example B), activity against weeds; format: in vivo; details: test plants of a height of 5-15 cm sprayed, rated after three weeks
Source text: as §1, §2
(§4) After three weeks, the degree of damage to the plants is rated in % damage in comparison to the development of the untreated control.

[5] = system: crop plants, such as, for example, barley and wheat; assay: Post-Emergence Test (Example B), tolerance by crop plants
Source text: as §1, §2, §4

[6] = reversed-phase HPLC column (C 18)
[7] = pre-emergence, barley, wheat, rapeseed, soya and sugar beet, rated after three weeks
[8] = post-emergence, barley and wheat, rated after three weeks

With `N#Cc1cc(F)c(-n2ncc(=O)[nH]c2=O)cc1F` the melting point was > 250 °C.

`CCS(=O)(=O)N(C(=O)Oc1ccccc1)c1cc(-n2ncc(=O)n(C)c2=O)c(F)cc1C#N` [Example 1, 2-[5-(N-phenoxy-carbonyl-N-ethylsulphonylamino)-4-cyano-2-fluoro-phenyl]-4-methyl-1,2,4-triazine-3,5(2H,4H)-dione] gave a chromatographic logP [1] of 2.76 and a melting point of 181 °C.

For `C=CC(=O)N(c1cc(-n2ncc(=O)n(C)c2=O)c(F)cc1C#N)S(=O)(=O)CC` [Example 2, 2-[5-(N-acryloyl-N-ethylsulphonylamino)-4-cyano-2-fluoro-phenyl]-4-methyl-1,2,4-triazine-3,5(2H,4H)-dione], the chromatographic logP [1, 6] was 1.97, the “activity against weeds (degree of damage)” value (from here on “activity against weeds”) (weeds [2]) was “very strong activity” and the “tolerance by crop plants” value [3, 7] was “essentially being tolerated well”. The “activity against weeds” value (weeds [4]) was “very strong activity”, the “tolerance by crop plants” value [5, 8] was “essentially being tolerated well” and the melting point was 118 °C.

In the case of `CCS(=O)(=O)N(C(=O)COC)c1cc(-n2ncc(=O)n(C)c2=O)c(F)cc1C#N` [Example 25], the “logP a)” value [1] is reported as “logP = 1.82^a)”, the “activity against weeds” value (weeds [2]) is reported as “very strong activity” and the “tolerance by crop plants” value ([3]; in vivo) is reported as “essentially being tolerated well”. For the same compound, the “activity against weeds” value (weeds [4]) was “very strong activity” and the “tolerance by crop plants” value ([5]; in vivo) was “essentially being tolerated well”.

In the case of `CCS(=O)(=O)N(C(=O)c1ccc(F)cc1)c1cc(-n2ncc(=O)n(C)c2=O)c(F)cc1C#N` [Example 26], the “logP a)” value [1] is reported as “m.p.: 123 °C logP = 2.60^a)”, the “activity against weeds” value (weeds [2]) is reported as “very strong activity” and the “tolerance by crop plants” value ([3]; in vivo) is reported as “essentially being tolerated well”. The “activity against weeds” value (weeds [4]) was “very strong activity” and the “tolerance by crop plants” value ([5]; in vivo) was “essentially being tolerated well”.

For `CCS(=O)(=O)N(C(=O)CCCCl)c1cc(-n2ncc(=O)n(C)c2=O)c(F)cc1C#N` [Example 27], the “logP a)” value [1] was “logP = 2.43^a)”, the “activity against weeds” value (weeds [2]) was “very strong activity” and the “tolerance by crop plants” value ([3]; in vivo) was “essentially being tolerated well”. The “activity against weeds” value (weeds [4]) was “very strong activity” and the “tolerance by crop plants” value ([5]; in vivo) was “essentially being tolerated well”.

For `CCS(=O)(=O)N(C(C)=O)c1cc(-n2ncc(=O)n(C)c2=O)c(F)cc1C#N` [Example 28], the “logP a)” value [1] was “logP = 1.79^a)”, the “activity against weeds” value (weeds [2]) was “very strong activity” and the “tolerance by crop plants” value ([3]; in vivo) was “essentially being tolerated well”. The “activity against weeds” value (weeds [4]) was “very strong activity” and the “tolerance by crop plants” value ([5]; in vivo) was “essentially being tolerated well”.

For `CCS(=O)(=O)N(C(=O)CCCBr)c1cc(-n2ncc(=O)n(C)c2=O)c(F)cc1C#N` [Example 30], the “logP a)” value [1] was “logP = 2.51^a)”, the “activity against weeds” value (weeds [2]) was “very strong activity” and the “tolerance by crop plants” value ([3]; in vivo) was “essentially being tolerated well”. For the same compound, the “activity against weeds” value (weeds [4]) was “very strong activity” and the “tolerance by crop plants” value ([5]; in vivo) was “essentially being tolerated well”.

In the case of `CCS(=O)(=O)N(C(=O)CCC1CCCCC1)c1cc(-n2ncc(=O)n(C)c2=O)c(F)cc1C#N` [Example 31], the “logP a)” value [1] is reported as “m.p.: 123 °C logP = 3.66^a)”, the “activity against weeds” value (weeds [2]) is reported as “very strong activity” and the “tolerance by crop plants” value ([3]; in vivo) is reported as “essentially being tolerated well”. The “activity against weeds” value (weeds [4]) was “very strong activity” and the “tolerance by crop plants” value ([5]; in vivo) was “essentially being tolerated well”.

With `CCS(=O)(=O)N(C(=O)C=C(C)C)c1cc(-n2ncc(=O)n(C)c2=O)c(F)cc1C#N` [Example 32] the “logP a)” value ([1]; a) acidic range: 0.1% aqueous phosphoric acid, acetonitrile gradient, HPLC C 18, 43° C.) was “m.p.: 150 °C logP = 2.40^a)”, the “activity against weeds” value (weeds [2]) was “very strong activity” and the “tolerance by crop plants” value [3, 7] was “essentially being tolerated well”. For the same compound, the “activity against weeds” value (weeds [4]) was “very strong activity” and the “tolerance by crop plants” value [5, 8] was “essentially being tolerated well”.

For `CCS(=O)(=O)N(C(=O)COc1ccccc1Cl)c1cc(-n2ncc(=O)n(C)c2=O)c(F)cc1C#N` [Example 35], the “logP a)” value [1] was “m.p.: 220 °C logP = 2.89^a)”, the “activity against weeds” value (weeds [2]) was “very strong activity” and the “tolerance by crop plants” value ([3]; in vivo) was “essentially being tolerated well”. The “activity against weeds” value (weeds [4]) was “very strong activity” and the “tolerance by crop plants” value ([5]; in vivo) was “essentially being tolerated well”.

In the case of `CCS(=O)(=O)N(C(=O)Cc1ccc(F)cc1F)c1cc(-n2ncc(=O)n(C)c2=O)c(F)cc1C#N` [Example 36], the “logP a)” value [1] is reported as “m.p.: 210 °C logP = 2.73^a)”, the “activity against weeds” value (weeds [2]) is reported as “very strong activity” and the “tolerance by crop plants” value ([3]; in vivo) is reported as “essentially being tolerated well”. The “activity against weeds” value (weeds [4]) was “very strong activity” and the “tolerance by crop plants” value ([5]; in vivo) was “essentially being tolerated well”.

In the case of `CCS(=O)(=O)N(C(=O)Cc1ccc(Cl)cc1)c1cc(-n2ncc(=O)n(C)c2=O)c(F)cc1C#N` [Example 42], the “logP a)” value [1] is reported as “m.p.: 222 °C logP = 2.96^a)”, the “activity against weeds” value (weeds [2]) is reported as “very strong activity” and the “tolerance by crop plants” value ([3]; in vivo) is reported as “essentially being tolerated well”. The “activity against weeds” value (weeds [4]) was “very strong activity” and the “tolerance by crop plants” value ([5]; in vivo) was “essentially being tolerated well”.

For `CCS(=O)(=O)N(C(=O)COc1ccccc1)c1cc(-n2ncc(=O)n(C)c2=O)c(F)cc1C#N` [Example 43], the “logP a)” value [1] was “m.p.: 222 °C logP = 2.96^a)”, the “activity against weeds” value (weeds [2]) was “very strong activity” and the “tolerance by crop plants” value ([3]; in vivo) was “essentially being tolerated well”. For the same compound, the “activity against weeds” value (weeds [4]) was “very strong activity” and the “tolerance by crop plants” value ([5]; in vivo) was “essentially being tolerated well”.

In the case of `CCS(=O)(=O)N(C(=O)CCc1ccc(Cl)c(Cl)c1)c1cc(-n2ncc(=O)n(C)c2=O)c(F)cc1C#N` [Example 44], the “logP a)” value [1] is reported as “m.p.: 142 °C logP = 2.52^a)”, the “activity against weeds” value (weeds [2]) is reported as “very strong activity” and the “tolerance by crop plants” value ([3]; in vivo) is reported as “essentially being tolerated well”. For the same compound, the “activity against weeds” value (weeds [4]) was “very strong activity” and the “tolerance by crop plants” value ([5]; in vivo) was “essentially being tolerated well”.

With `CCS(=O)(=O)N(C(=O)Cc1ccc(OC)cc1)c1cc(-n2ncc(=O)n(C)c2=O)c(F)cc1C#N` [Example 45] the “logP a)” value [1] was “m.p.: 221 °C logP = 2.58^a)”, the “activity against weeds” value (weeds [2]) was “very strong activity” and the “tolerance by crop plants” value ([3]; in vivo) was “essentially being tolerated well”. For the same compound, the “activity against weeds” value (weeds [4]) was “very strong activity” and the “tolerance by crop plants” value ([5]; in vivo) was “essentially being tolerated well”.

With `CCS(=O)(=O)N(C(=O)CCC1CCCC1)c1cc(-n2ncc(=O)n(C)c2=O)c(F)cc1C#N` [Example 46] the “logP a)” value [1] was “m.p.: 143 °C logP = 3.34^a)”, the “activity against weeds” value (weeds [2]) was “very strong activity” and the “tolerance by crop plants” value ([3]; in vivo) was “essentially being tolerated well”. For the same compound, the “activity against weeds” value (weeds [4]) was “very strong activity” and the “tolerance by crop plants” value ([5]; in vivo) was “essentially being tolerated well”.

For `CCS(=O)(=O)N(C(=O)C1CCCC1)c1cc(-n2ncc(=O)n(C)c2=O)c(F)cc1C#N` [Example 47], the “logP a)” value [1] was “m.p.: 93 °C logP = 2.66^a)”, the “activity against weeds” value (weeds [2]) was “very strong activity” and the “tolerance by crop plants” value ([3]; in vivo) was “essentially being tolerated well”. The “activity against weeds” value (weeds [4]) was “very strong activity” and the “tolerance by crop plants” value ([5]; in vivo) was “essentially being tolerated well”.

For `CCS(=O)(=O)N(C(=O)c1ccc(C(C)(C)C)cc1)c1cc(-n2ncc(=O)n(C)c2=O)c(F)cc1C#N` [Example 49], the “logP a)” value [1] was “m.p.: 119 °C logP = 3.57^a)”, the “activity against weeds” value (weeds [2]) was “very strong activity” and the “tolerance by crop plants” value ([3]; in vivo) was “essentially being tolerated well”. The “activity against weeds” value (weeds [4]) was “very strong activity” and the “tolerance by crop plants” value ([5]; in vivo) was “essentially being tolerated well”.

In the case of `CCOc1ccc(CCC(=O)N(c2cc(-n3ncc(=O)n(C)c3=O)c(F)cc2C#N)S(=O)(=O)CC)cc1` [Example 51], the “logP a)” value [1] is reported as “m.p.: 74 °C logP = 3.22^a)”, the “activity against weeds” value (weeds [2]) is reported as “very strong activity” and the “tolerance by crop plants” value ([3]; in vivo) is reported as “essentially being tolerated well”. For the same compound, the “activity against weeds” value (weeds [4]) was “very strong activity” and the “tolerance by crop plants” value ([5]; in vivo) was “essentially being tolerated well”.

In the case of `CCS(=O)(=O)Nc1cc(-n2ncc(=O)n(C)c2=O)c(F)cc1C#N` [Example (II-1), 2-(2-fluoro-4-cyano-5-ethylsulphonylamino-phenyl)-4-methyl-1,2,4-triazine-3,5(2H,4H)-dione], the chromatographic logP [1, 6] is reported as 1.66 and the melting point is reported as 233 °C.
